According to PMC8745342, “In Vitro and In Silico Kinetic Studies of Patented 1,7-diEthyl and 1,7-diMethyl Aminoalkanol Derivatives as New Inhibitors of Acetylcholinesterase” (International Journal of Molecular Sciences, 2021):

Target: T1, Acetylcholinesterase human (AChE) (Homo sapiens, UniProt P22303)
T1 construct: purchased Sigma-Aldrich (Poznań, Poland)
Test: AChE inhibition kinetics, Ellman's method combined with capillary electrophoresis
Type: biochemical
Conditions: for type of AChE inhibition: from Lineweaver-Burk plots, Km and Vmax; for IC50: from activity (%) versus inhibitor concentration plots; for Tilt Angle of Lineweaver-Burk line: acetylthiocholine 0.36–46.00 mM, n = 6; for amount of 4,4-dithio-bis-acid nitrobenzoic (DBAN) product in the presence of inhibitor: 0.66 mM without inhibitors
Source text: In this work, we used the combined Ellman’s method with the capillary electrophoresis method developed by us for the determination of 4,4-dithio-bis-acid nitrobenzoic (DBAN) (main enzyme reaction product) in the presence of acetylthiocholine (ACth), 5-thio-2-nitrobenzoic acid (NTB), 5,5′-dithio-bis-2-nitrobenzoic acid (DTNB), acetylcholinesterase (AChE) and inhibitors (I), (II), (III) and (IV) of acetylcholinesterase. For the development of this method, we optimized the buffer pH, separating background electrolyte (BGE) concentration, wavelength, temperature, and voltage. […] All these separation systems were tested to achieve the best separation parameters, resolution, and analysis time for all components in the reaction mixture. […] Separation was carried out at 15 kV. Each sample was added to the capillary under hydrodynamic injection.
The samples were injected under 5 psi pressure for 3 s. The experiments were performed under constant current conditions (85 μA). […] Before the assay, the capillary was conditioned with 0.1 M NaOH for 10 min at 10 psi and with H2O for 10 min at 10 psi. Then, it was electro conditioned with the running buffer for 20 min at +10 kV and pressure-conditioned with the running buffer for 10 min at 10 psi. Before each injection, the capillary was washed with 1 M NaOH for 2 min, then with H2O for 2 min, and finally with BGE for 2 min. At the end of each working day, the capillary was rinsed for 10 min with 0.1 M NaOH, 10 min with BGE, and 10 min with deionized water at 15 psi. Then, the capillary was exposed to air for 10 min at 20 psi and left empty.
Sample mixtures containing 4,4-dithio-bis-acid nitrobenzoic (DBAN) (main enzyme reaction product) in the presence of acetylthiocholine (ACth), 5-thio-2-nitrobenzoic acid (NTB), 5,5′-dithio-bis-2-nitrobenzoic acid (DTNB), acetylcholinesterase (AChE) and inhibitors (I), (II), (III) and (IV) were introduced automatically by pressure injection (with 2 psi pressure for 5 s on the sample solution). At the day’s end, vials with anode and cathode buffer were emptied and running buffer was filled again at the start of the next day before the analysis.
Acetylcholinesterase activity was determined according to the method by Ellman et al. and according to the procedure described by Rosilene R et al. but slightly modified. […] The tubes containing solutions were preincubated for 2 min at 25 °C. Then, 0.1 mL […] AChE was introduced into tubes 1–9, at an interval of 1 min. All 10 samples were incubated for 3 min at 25 °C. After incubation, the analytical samples were introduced into the capillary.
The inhibition constants (Ki) were calculated from the plotted Lineweaver–Burk curves for the four concentrations of the inhibitors (I), (II), (III) and (IV). The method was based on two steps (Figure 8).

[1] = inhibitor 0.08 mM, acetylthiocholine 0.36 mM
[2] = inhibitor 0.08 mM, acetylthiocholine 0.72 mM
[3] = inhibitor 0.08 mM, acetylthiocholine 1.44 mM
[4] = inhibitor 0.08 mM, acetylthiocholine 2.88 mM
[5] = inhibitor 0.08 mM, acetylthiocholine 5.75 mM
[6] = inhibitor 0.08 mM, acetylthiocholine 11.50 mM
[7] = inhibitor 0.08 mM, acetylthiocholine 23.00 mM
[8] = inhibitor 0.08 mM, acetylthiocholine 34.50 mM
[9] = inhibitor 0.08 mM, acetylthiocholine 46.00 mM

T1 sequence (P22303 32-614): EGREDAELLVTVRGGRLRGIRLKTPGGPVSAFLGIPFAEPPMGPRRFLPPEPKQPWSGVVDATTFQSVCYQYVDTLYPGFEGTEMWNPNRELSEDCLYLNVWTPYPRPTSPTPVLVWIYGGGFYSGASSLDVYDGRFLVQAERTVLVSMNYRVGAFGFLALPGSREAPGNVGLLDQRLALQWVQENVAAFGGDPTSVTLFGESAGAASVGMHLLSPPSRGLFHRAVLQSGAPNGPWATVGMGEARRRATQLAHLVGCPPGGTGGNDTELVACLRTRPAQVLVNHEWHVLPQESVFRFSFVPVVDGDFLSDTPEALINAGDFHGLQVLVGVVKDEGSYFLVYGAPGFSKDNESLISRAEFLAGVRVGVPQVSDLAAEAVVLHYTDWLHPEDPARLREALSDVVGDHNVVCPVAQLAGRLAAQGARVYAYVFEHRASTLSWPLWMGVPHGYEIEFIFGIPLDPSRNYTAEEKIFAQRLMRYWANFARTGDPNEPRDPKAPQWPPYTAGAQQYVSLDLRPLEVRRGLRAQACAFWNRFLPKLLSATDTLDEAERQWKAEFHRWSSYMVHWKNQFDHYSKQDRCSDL

## CCC12C(=O)C(CC)(C(c3ccccc3)=C1c1ccccc1)C1C(=O)N(CC(O)CNC(C)C)C(=O)C12 (centres unmarked) [Compound (I)]
  type of AChE inhibition: competitive
  IC50: 37 ± 1 µM
Inhibitor 0.01 mM
  Vmax: 0.63 ± 0.02 mM/min
  Tilt Angle of Lineweaver-Burk line: 59.52 ± 0.04 °
Inhibitor 0.02 mM
  Vmax: 0.62 ± 0.03 mM/min
Inhibitor 0.04 mM
  Vmax: 0.64 ± 0.01 mM/min
  Tilt Angle of Lineweaver-Burk line: 65.42 ± 0.05 °
Inhibitor 0.06 mM
  Vmax: 0.65 ± 0.01 mM/min
  Tilt Angle of Lineweaver-Burk line: 69.66 ± 0.05 °
Inhibitor 0.08 mM
  Vmax: 0.65 ± 0.01 mM/min
  Tilt Angle of Lineweaver-Burk line: 70.32 ± 0.03 °
[1]
  1/Vo, mean: 9.30 min/mM
  Peak area of product (4,4-dithio-bis-acid nitrobenzoic), mean: 49766
  V0 (reaction speed), mean: 0.11 mM/min
[2]
  1/Vo, mean: 5.46 min/mM
  Peak area of product (4,4-dithio-bis-acid nitrobenzoic), mean: 91263
  V0 (reaction speed), mean: 0.18 mM/min
[3]
  1/Vo, mean: 3.55 min/mM
  Peak area of product (4,4-dithio-bis-acid nitrobenzoic), mean: 128810
  V0 (reaction speed), mean: 0.28 mM/min
  amount of 4,4-dithio-bis-acid nitrobenzoic (DBAN) product in the presence of inhibitor: 0.52 mM
[4]
  1/Vo, mean: 2.30 min/mM
  Peak area of product (4,4-dithio-bis-acid nitrobenzoic), mean: 171159
  V0 (reaction speed), mean: 0.43 mM/min
[5]
  1/Vo, mean: 2.05 min/mM
  Peak area of product (4,4-dithio-bis-acid nitrobenzoic), mean: 207149
  V0 (reaction speed), mean: 0.49 mM/min
[6]
  1/Vo, mean: 1.80 min/mM
  Peak area of product (4,4-dithio-bis-acid nitrobenzoic), mean: 231267
  V0 (reaction speed), mean: 0.56 mM/min
[7]
  1/Vo, mean: 1.70 min/mM
  Peak area of product (4,4-dithio-bis-acid nitrobenzoic), mean: 247792
  V0 (reaction speed), mean: 0.59 mM/min
[8]
  1/Vo, mean: 1.55 min/mM
  Peak area of product (4,4-dithio-bis-acid nitrobenzoic), mean: 250475
  V0 (reaction speed), mean: 0.65 mM/min
[9]
  1/Vo, mean: 1.50 min/mM
  Peak area of product (4,4-dithio-bis-acid nitrobenzoic), mean: 251643
  V0 (reaction speed), mean: 0.67 mM/min

## CCC12C(=O)C(CC)(C(c3ccccc3)=C1c1ccccc1)C1C(=O)N(CC(O)CN(C)C)C(=O)C12 (centres unmarked) [Compound (II)]
  type of AChE inhibition: competitive
  IC50: 39 ± 1 µM
Inhibitor 0.01 mM
  Vmax: 0.62 ± 0.03 mM/min
  Tilt Angle of Lineweaver-Burk line: 59.46 ± 0.03 °
Inhibitor 0.02 mM
  Vmax: 0.63 ± 0.02 mM/min
  Tilt Angle of Lineweaver-Burk line: 59.60 ± 0.08 °
Inhibitor 0.04 mM
  Vmax: 0.65 ± 0.01 mM/min
  Tilt Angle of Lineweaver-Burk line: 65.19 ± 0.06 °
Inhibitor 0.06 mM
  Vmax: 0.65 ± 0.01 mM/min
  Tilt Angle of Lineweaver-Burk line: 69.02 ± 0.05 °
Inhibitor 0.08 mM
  Vmax: 0.65 ± 0.01 mM/min
  Tilt Angle of Lineweaver-Burk line: 70.02 ± 0.04 °
[1]
  1/Vo, mean: 9.19 min/mM
  Peak area of product (4,4-dithio-bis-acid nitrobenzoic), mean: 56086
  V0 (reaction speed), mean: 0.11 mM/min
[2]
  1/Vo, mean: 5.40 min/mM
  Peak area of product (4,4-dithio-bis-acid nitrobenzoic), mean: 102853
  V0 (reaction speed), mean: 0.19 mM/min
[3]
  1/Vo, mean: 3.50 min/mM
  Peak area of product (4,4-dithio-bis-acid nitrobenzoic), mean: 145167
  V0 (reaction speed), mean: 0.29 mM/min
  amount of 4,4-dithio-bis-acid nitrobenzoic (DBAN) product in the presence of inhibitor: 0.58 mM
[4]
  1/Vo, mean: 2.30 min/mM
  Peak area of product (4,4-dithio-bis-acid nitrobenzoic), mean: 192894
  V0 (reaction speed), mean: 0.43 mM/min
[5]
  1/Vo, mean: 2.05 min/mM
  Peak area of product (4,4-dithio-bis-acid nitrobenzoic), mean: 233453
  V0 (reaction speed), mean: 0.49 mM/min
[6]
  1/Vo, mean: 1.80 min/mM
  Peak area of product (4,4-dithio-bis-acid nitrobenzoic), mean: 260635
  V0 (reaction speed), mean: 0.56 mM/min
[7]
  1/Vo, mean: 1.70 min/mM
  Peak area of product (4,4-dithio-bis-acid nitrobenzoic), mean: 279258
  V0 (reaction speed), mean: 0.59 mM/min
[8]
  1/Vo, mean: 1.55 min/mM
  Peak area of product (4,4-dithio-bis-acid nitrobenzoic), mean: 282281
  V0 (reaction speed), mean: 0.65 mM/min
[9]
  1/Vo, mean: 1.50 min/mM
  Peak area of product (4,4-dithio-bis-acid nitrobenzoic), mean: 283597
  V0 (reaction speed), mean: 0.67 mM/min

## CC(C)NCC(O)CN1C(=O)C2C(C1=O)C1(C)C(=O)C2(C)C(c2ccccc2)=C1c1ccccc1 (centres unmarked) [Compound (III)]
  type of AChE inhibition: competitive
  IC50: 33 ± 1 µM
Inhibitor 0.01 mM
  Vmax: 0.63 ± 0.01 mM/min
  Tilt Angle of Lineweaver-Burk line: 60.01 ± 0.03 °
Inhibitor 0.02 mM
  Vmax: 0.63 ± 0.02 mM/min
  Tilt Angle of Lineweaver-Burk line: 62.28 ± 0.03 °
Inhibitor 0.04 mM
  Vmax: 0.64 ± 0.03 mM/min
  Tilt Angle of Lineweaver-Burk line: 67.38 ± 0.04 °
Inhibitor 0.06 mM
  Vmax: 0.64 ± 0.03 mM/min
  Tilt Angle of Lineweaver-Burk line: 70.42 ± 0.02 °
Inhibitor 0.08 mM
  Vmax: 0.63 ± 0.02 mM/min
  Tilt Angle of Lineweaver-Burk line: 71.50 ± 0.03 °
[1]
  1/Vo, mean: 10.1 min/mM
  Peak area of product (4,4-dithio-bis-acid nitrobenzoic), mean: 39497
  V0 (reaction speed), mean: 0.10 mM/min
[2]
  1/Vo, mean: 5.70 min/mM
  Peak area of product (4,4-dithio-bis-acid nitrobenzoic), mean: 72431
  V0 (reaction speed), mean: 0.18 mM/min
[3]
  1/Vo, mean: 3.55 min/mM
  Peak area of product (4,4-dithio-bis-acid nitrobenzoic), mean: 102230
  V0 (reaction speed), mean: 0.28 mM/min
  amount of 4,4-dithio-bis-acid nitrobenzoic (DBAN) product in the presence of inhibitor: 0.41 mM
[4]
  1/Vo, mean: 2.40 min/mM
  Peak area of product (4,4-dithio-bis-acid nitrobenzoic), mean: 135840
  V0 (reaction speed), mean: 0.42 mM/min
[5]
  1/Vo, mean: 2.05 min/mM
  Peak area of product (4,4-dithio-bis-acid nitrobenzoic), mean: 164404
  V0 (reaction speed), mean: 0.49 mM/min
[6]
  1/Vo, mean: 1.80 min/mM
  Peak area of product (4,4-dithio-bis-acid nitrobenzoic), mean: 183545
  V0 (reaction speed), mean: 0.56 mM/min
[7]
  1/Vo, mean: 1.70 min/mM
  Peak area of product (4,4-dithio-bis-acid nitrobenzoic), mean: 196660
  V0 (reaction speed), mean: 0.59 mM/min
[8]
  1/Vo, mean: 1.55 min/mM
  Peak area of product (4,4-dithio-bis-acid nitrobenzoic), mean: 198790
  V0 (reaction speed), mean: 0.65 mM/min
[9]
  1/Vo, mean: 1.50 min/mM
  Peak area of product (4,4-dithio-bis-acid nitrobenzoic), mean: 199716
  V0 (reaction speed), mean: 0.64 mM/min
